Measurements taken from paper PMC4813479, “β-Subunit Binding Is Sufficient for Ligands to Open the Integrin αIIbβ3 Headpiece” (The Journal of Biological Chemistry, 2015).
Values joined by “and” are separate entries in the source; they are usually repeats but may differ in a detail not shown here. Identical values can stand only once. Like-named read-outs stand apart in the source and are kept apart here. Non-standard residues stand in square brackets, D forms with d. Residues, ends and D or L forms follow the SMILES beside them. No end group written: not given here.

Columns and labels:
αIIbβ3 headpiece [1] = molecular target: T1, αIIbβ3 headpiece (Homo sapiens, UniProt P05106+P08514); experiment: Fluorescence anisotropy binding assay (saturation and competition with FITC-dodecapeptide); set-up: increasing the concentration of purified recombinant αIIbβ3 headpiece to saturation; C-terminal α-helical coiled-coil (C); made in house; settings: for Kd: read-out: KD, competitive binding; for reduction in affinity relative to AGDV: fluorescence anisotropy, Mn2+/Ca2+
T1 sequence (P08514 32-652 limits assumed): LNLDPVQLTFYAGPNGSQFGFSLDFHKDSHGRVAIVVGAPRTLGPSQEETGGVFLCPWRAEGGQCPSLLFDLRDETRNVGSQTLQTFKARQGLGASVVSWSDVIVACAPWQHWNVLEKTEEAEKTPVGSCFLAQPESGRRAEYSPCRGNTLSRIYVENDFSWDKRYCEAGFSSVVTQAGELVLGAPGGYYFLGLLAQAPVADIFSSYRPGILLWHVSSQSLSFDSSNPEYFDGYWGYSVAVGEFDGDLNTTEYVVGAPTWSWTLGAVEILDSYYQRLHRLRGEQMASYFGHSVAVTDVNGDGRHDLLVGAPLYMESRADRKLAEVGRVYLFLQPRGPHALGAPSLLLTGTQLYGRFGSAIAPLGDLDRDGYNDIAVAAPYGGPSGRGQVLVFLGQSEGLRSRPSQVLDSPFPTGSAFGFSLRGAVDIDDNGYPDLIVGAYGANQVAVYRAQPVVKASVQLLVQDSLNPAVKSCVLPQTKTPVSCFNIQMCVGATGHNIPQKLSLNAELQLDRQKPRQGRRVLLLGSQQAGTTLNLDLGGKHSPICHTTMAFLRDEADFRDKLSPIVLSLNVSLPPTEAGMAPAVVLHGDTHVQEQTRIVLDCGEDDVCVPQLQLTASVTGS
T1 sequence (P05106 27-498 limits assumed): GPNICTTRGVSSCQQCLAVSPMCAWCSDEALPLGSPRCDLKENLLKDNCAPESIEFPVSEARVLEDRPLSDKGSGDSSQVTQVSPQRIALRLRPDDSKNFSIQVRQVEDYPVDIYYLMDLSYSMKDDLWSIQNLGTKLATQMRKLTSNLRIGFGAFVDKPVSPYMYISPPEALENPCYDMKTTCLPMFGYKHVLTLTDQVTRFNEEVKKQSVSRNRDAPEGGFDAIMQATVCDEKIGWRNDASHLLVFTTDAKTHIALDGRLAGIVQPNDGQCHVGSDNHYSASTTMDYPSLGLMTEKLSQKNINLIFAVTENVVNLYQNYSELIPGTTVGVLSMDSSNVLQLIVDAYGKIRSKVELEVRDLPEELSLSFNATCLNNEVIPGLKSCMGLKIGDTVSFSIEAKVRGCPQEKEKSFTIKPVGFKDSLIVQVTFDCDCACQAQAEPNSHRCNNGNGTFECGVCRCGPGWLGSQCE
Description: Binding affinities for different peptide ligands were measured using fluorescence anisotropy as described previously ([12]). Anisotropy is defined as (F‖ − F⊥)/(F‖ + 2F⊥), where F‖ and F⊥are the fluorescence intensities parallel and perpendicular to the excitation plane, respectively. mA units (shown in figures) correspond to 1,000 × anisotropy. […] KD^F* was fitted using one-site, specific binding; i.e. A = Amax × Citg/(KD^F* + Citg), where A represents the anisotropy signal from specific binding, Citg represents the concentration of integrin αIIbβ3 headpiece, and Amax is the maximum anisotropy signal. Background anisotropy obtained by adding an excess of 10 μM tirofiban was subtracted from anisotropy.
I50 values for unlabeled peptides were obtained by least squares fitting. […] All measurements were in 20 mM HEPES, pH 7.5, 150 mM NaCl, 2 mM MnCl2, 0.1 mM CaCl2. The Prism GraphPad program (La Jolla, CA) was used to fit the saturation binding curve, inhibition curves, and I50 values.

[2] = system: fibrinogen binding to platelets; set-up: method as in PMID 6326808; settings: read-out: IC50, block of fibrinogen binding to platelets; cited from earlier work
[3] = molecular target: T2, CHO cells stably expressing full-length human αIIbβ3 (Homo sapiens, UniProt P05106+P08514); experiment: Ligand-induced binding site (LIBS1) epitope expression, flow cytometry; format: cell-based
T2 construct: CHO K1 cells stably transfected with full-length αIIbβ3; expressed in transfected cells; host or cells: CHO K1 cells, stably transfected
T2 sequence (P08514 32-887 limits assumed): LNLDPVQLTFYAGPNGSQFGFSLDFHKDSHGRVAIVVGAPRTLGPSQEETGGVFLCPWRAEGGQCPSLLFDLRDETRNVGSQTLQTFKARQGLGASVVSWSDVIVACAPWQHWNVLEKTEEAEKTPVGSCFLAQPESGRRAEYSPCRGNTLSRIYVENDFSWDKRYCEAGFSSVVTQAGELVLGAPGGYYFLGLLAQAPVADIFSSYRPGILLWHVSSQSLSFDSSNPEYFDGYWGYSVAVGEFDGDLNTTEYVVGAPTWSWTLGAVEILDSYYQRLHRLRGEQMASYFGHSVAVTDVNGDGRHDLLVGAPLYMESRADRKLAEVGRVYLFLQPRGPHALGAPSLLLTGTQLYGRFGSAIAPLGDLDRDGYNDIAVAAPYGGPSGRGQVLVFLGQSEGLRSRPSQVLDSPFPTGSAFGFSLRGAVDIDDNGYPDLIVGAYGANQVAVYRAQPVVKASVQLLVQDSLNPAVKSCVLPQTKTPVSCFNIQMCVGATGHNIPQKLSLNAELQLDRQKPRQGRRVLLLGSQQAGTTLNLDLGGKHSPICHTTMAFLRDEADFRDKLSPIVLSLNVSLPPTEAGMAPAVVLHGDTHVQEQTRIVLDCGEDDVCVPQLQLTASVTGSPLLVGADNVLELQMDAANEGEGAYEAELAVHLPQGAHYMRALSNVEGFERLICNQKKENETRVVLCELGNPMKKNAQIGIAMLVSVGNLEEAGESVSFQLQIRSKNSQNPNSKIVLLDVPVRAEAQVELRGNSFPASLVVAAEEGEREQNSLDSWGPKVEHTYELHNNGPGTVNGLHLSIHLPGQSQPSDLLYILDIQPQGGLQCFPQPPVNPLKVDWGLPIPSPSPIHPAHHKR
T2 sequence (P08514 891-1039 partner limits assumed): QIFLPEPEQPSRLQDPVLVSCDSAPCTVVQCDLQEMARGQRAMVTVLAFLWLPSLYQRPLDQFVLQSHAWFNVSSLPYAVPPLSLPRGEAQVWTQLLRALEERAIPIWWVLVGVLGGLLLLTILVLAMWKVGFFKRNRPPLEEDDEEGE
T2 sequence (P05106 27-788): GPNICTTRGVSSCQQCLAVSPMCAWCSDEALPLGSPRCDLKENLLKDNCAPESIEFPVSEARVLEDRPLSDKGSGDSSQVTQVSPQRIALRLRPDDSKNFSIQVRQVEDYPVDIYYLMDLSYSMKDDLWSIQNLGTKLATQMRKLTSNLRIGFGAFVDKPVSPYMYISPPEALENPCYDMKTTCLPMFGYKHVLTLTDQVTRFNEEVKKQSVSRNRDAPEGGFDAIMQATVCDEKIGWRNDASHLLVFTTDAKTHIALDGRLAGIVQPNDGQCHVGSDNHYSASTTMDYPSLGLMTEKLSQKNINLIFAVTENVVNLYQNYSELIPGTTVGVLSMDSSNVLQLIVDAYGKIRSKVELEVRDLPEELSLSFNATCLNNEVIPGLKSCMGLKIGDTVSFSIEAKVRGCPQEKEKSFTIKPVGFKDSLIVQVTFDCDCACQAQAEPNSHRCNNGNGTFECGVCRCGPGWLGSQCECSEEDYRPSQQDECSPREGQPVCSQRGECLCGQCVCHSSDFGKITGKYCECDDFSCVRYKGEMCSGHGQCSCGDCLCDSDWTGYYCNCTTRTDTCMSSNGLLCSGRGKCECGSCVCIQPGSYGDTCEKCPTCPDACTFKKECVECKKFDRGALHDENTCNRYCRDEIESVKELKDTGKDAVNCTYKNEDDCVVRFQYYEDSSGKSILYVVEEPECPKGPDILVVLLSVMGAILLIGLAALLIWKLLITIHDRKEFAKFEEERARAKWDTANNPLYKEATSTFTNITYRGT
Description: CHO K1 cells stably transfected with full-length αIIbβ3 ([16]) were incubated at room temperature with serially diluted peptide in 20 mM HEPES, pH 7.4, 150 mM NaCl, 5.5 mM glucose, 1% BSA, 1 mM Mg^2+/Ca^2+, and 10 μg/ml LIBS1 antibody for 30 min. Mixtures were washed twice in the same buffer minus LIBS1. The washed cells were incubated with FITC-conjugated anti-mouse antibody at room temperature for 30 min, washed again, chilled on ice, and subjected to flow cytometry. The dose-response curves were fit, and EC50 values were calculated by Prism GraphPad.

αIIbβ3 headpiece [4] = molecular target: T1, αIIbβ3 headpiece; experiment: Dynamic light scattering (DLS) of headpiece with peptide: headpiece opening; settings: αIIbβ3 headpiece (20 μM) + 1 mM peptide; TBS pH 7.4, 1 mM Mg2+, 1 mM Ca2+, 10 min, 25 °C; headpiece alone 4.69 ± 0.02; triplicate, mean ± S.D.
Description: (§1) Digested headpiece was purified by passage through a nickel-nitrilotriacetic acid column ([13]). For Stokes radius measurements, the re-purified headpiece at 10 μM (1 mg/ml by A280) was incubated with 1 mM peptide ligand in 20 mM TBS with 1 mM Mg^2+ and 1 mM Ca^2+ at 25 °C for 30 min and then applied to a Superdex 200 column (GE Healthcare Life Sciences) pre-equilibrated with the same buffer containing 1 mM peptide. Calibration and conversion of elution volume to Stokes radius was as described ([11]). For DLS, 20 μM chymotrypsin-treated, re-purified headpiece was filtered through a 100 nm cutoff membrane (Millipore Ultrafree centrifugal filter), incubated with 1 mM peptide in TBS plus 1 mM Mg^2+/Ca^2+ for 10 min at 25 °C in the cuvette, and read in the Viscotek 802 DLS (Viscotek Corp.). The DLS-derived hydration radii (Rh) were obtained by intensity-based fitting using the OmniSize program for 2–3 independent measurements using the same batch of integrin headpiece sample, but measured in different days. Each measurement was an average of at least fifteen 10-s reads.
(§2) The change in Stokes radius was also measured by size-exclusion chromatography (Fig. 3B).

αIIbβ3 headpiece [5] = molecular target: T1, αIIbβ3 headpiece; experiment: Size-exclusion chromatography (Superdex 200) of headpiece with peptide: headpiece opening; settings: for elution volume of αIIbβ3 headpiece: Superdex 200, 1 mM peptide, buffer alone 12.56 ± 0.01 ml, mean; for Stokes radii, Size-exclusion: αIIbβ3 headpiece (10 μM) + 1 mM peptide, Superdex 200, TBS, 1 mM Mg2+/Ca2+, 25 °C, 30 min, headpiece alone 4.78 ± 0.02, duplicate, mean and difference from mean
Description: as §1, §2

αIIbβ3 headpiece [6] = molecular target: T1, αIIbβ3 headpiece; experiment: Ligand soaking into closed αIIbβ3 headpiece crystals, conformational state by X-ray structure; set-up: increasing the concentration of purified recombinant αIIbβ3 headpiece to saturation; C-terminal α-helical coiled-coil (C); made in house; settings: 4 °C, state 1 closed, state 8 open
Description: The αIIbβ3 headpiece was crystallized in the closed conformation with the thigh domain removed ([11]). Briefly, chymotrypsin- and carboxypeptidase-treated αIIbβ3-10E5 Fab complex was concentrated to 10 mg/ml in TBS (20 mM Tris, 150 mM NaCl, pH 7.4) with 1 mM Mg^2+, 1 mM Ca^2+ and crystallized in 11% PEG 8000, 0.2 M ammonium sulfate, 0.1 M Tris-HCl, pH 8.9 at 4 °C ([11]). Crystals were then stabilized with the same crystallization buffer but containing 15% PEG 8000, and glycerol concentration was incremented in 5% steps to 20% for cryoprotection. Finally, crystals were soaked in ligand in the same buffer with defined metal conditions for a specified duration at 4 °C (see Table 1). Diffraction data were collected at beamline ID-23 of the Advanced Photon Source (Argonne, IL). Resolution limit was determined by cross-correlation ([14]). Refinements using Phenix ([15]) were as described previously ([4]).
We soaked AGDV peptide into αIIbβ3 headpiece crystals in the closed conformation (state 1) in 1 mM Mn^2+ and 0.2 mM Ca^2+ and were able to trap four distinct intermediate states during headpiece opening (Table 1). […] Two copies of the αIIbβ3 headpiece complex (molecules 1 and 2) exist in one asymmetric unit ([4]), so we were able to obtain two different conformational states in a single crystal (Table 1). Based on the conformation and position of the moving parts of the βI domain, i.e. the β1-α1 loop, α1-helix, β6-α7 loop, and the ADMIDAS metal, each intermediate (Fig. 4) is assigned a state number between 1 (Fig. 4A) and 8 (Fig. 4B) corresponding to previous RGD-bound intermediates ([4]). AGDV binds in the groove formed between the α- and β-subunits (Fig. 4, C, E, G, and I), but has limited contact with α, because it occupies only a portion (about two-thirds) of the groove occupied by RGD (Fig. 4B). The N-terminal amine of AGDV is >9.0 Å away from Asp-224 of αIIb, which forms salt bridges to the Arg of RGD and the Lys of KQAGDV. Moreover, unlike the extended backbone conformation adopted by RGD (Fig. 4, A and B), the backbone of AGDV is curved (Fig. 4, C, E, G, and I).

αIIbβ3 = settings: cited from earlier work
Description: Ro-435054 is a 4-residue peptidomimetic, with an N-terminal amidinobenzoyl, a β-alanine, an L-Asp, and a C-terminal L-Phe (Fig. 7A). […] The high-affinity RGDF peptide ([19]) may be considered both fibrinogen-mimetic and RGD-mimetic. RGDF has the same two C-terminal a ...

**Q.** With `CC(=O)N[C@@H](C)C(=O)NCC(=O)N[C@@H](CC(=O)O)C(=O)N[C@H](C(=O)O)C(C)C` [Ac-AGDV, N-acetylated AGDV] (Ac-AGDV-OH) as the compound, how does the Kd (αIIbβ3 headpiece [1]) read?
**A.** 1 ± 0.46 µM

**Q.** Which “reduction in affinity relative to AGDV” value (αIIbβ3 headpiece [1]; ratio of KD values) does the source give for `COC(=O)[C@@H](NC(=O)[C@H](CC(=O)O)NC(=O)CNC(=O)[C@H](C)N)C(C)C` [AGDV-OCH3] (H-AGDV-OMe) here?
**A.** 7.5 fold

**Q.** And the Kd (αIIbβ3 headpiece [1])?
**A.** 67.6 ± 23.3 µM

**Q.** For `CC(C)[C@H](NC(=O)[C@H](CC(=O)O)NC(=O)CNC(=O)[C@H](C)N)C(N)=O` [AGDV-NH2] (H-AGDV-NH2), which Kd (αIIbβ3 headpiece [1]) is on record?
**A.** 50.9 ± 13 µM

**Q.** For AGD, which IC50 [2] is on record?
**A.** ~100 µM

**Q.** Which results are given for “HHLGGAKQAGDV [fibrinogen γC dodecapeptide, reference compound]”?
**A.** EC50 ([3]; CHO K1 αIIbβ3 transfectants, 1 mM Mg2+/1 mM Ca2+, 10 μg/ml LIBS1, 30 min, room temperature, flow cytometry, mean ± S.D., read-out: EC50, LIBS1 epitope exposure): 578 ± 222 µM; Kd (αIIbβ3 headpiece [1]): 1.27 ± 0.08 µM

**Q.** Which “less effective than GRGDSP (LIBS1 EC50)” value ([3]; ratio of EC50 values) does the source give for `CC(C)[C@H](NC(=O)[C@H](CC(=O)O)NC(=O)CNC(=O)[C@H](C)N)C(=O)O` [AGDV] (H-AGDV-OH) here?
**A.** ~7 times

**Q.** And the “less effective when compared with dodecapeptide (LIBS1 EC50)” value ([3]; ratio of EC50 values)?
**A.** 2.5 times

**Q.** What about the “Stokes radii, DLS” value (αIIbβ3 headpiece [4]) of the same compound?
**A.** 5.24 ± 0.03 nm and 5.2 nm

**Q.** And the “elution volume of αIIbβ3 headpiece” value (αIIbβ3 headpiece [5])?
**A.** 12.19 ± 0.05 mL

**Q.** And the “Stokes radii, Size-exclusion” value (αIIbβ3 headpiece [5])?
**A.** 5.17 nm

**Q.** What about the “less potent than the dodecapeptide” value (αIIbβ3 headpiece [1]; in Mn2+/Ca2+, ratio of KD values) of the same compound?
**A.** ~7 times

**Q.** And the Kd (αIIbβ3 headpiece [1])?
**A.** 9.03 ± 2.75 µM

**Q.** And the “Conformational states (molecule 1/molecule 2)” value (“Conformational states” for short) (αIIbβ3 headpiece [6]; 50 mM ligand, Mn/Ca (2 mM MnCl2, 0.1 mM CaCl2), soak 1 week)?
**A.** State 7/state 2

**Q.** What about the “Conformational states” value (αIIbβ3 headpiece [6]; 50 mM ligand, Mn/Ca (2 mM MnCl2, 0.1 mM CaCl2), soak 2 h) of the same compound?
**A.** State 6/state 3

**Q.** Which “Stokes radii, DLS” value (αIIbβ3 headpiece [4]) does the source give for RGDF [reference compound] here?
**A.** 5.19 ± 0.04 nm

**Q.** What about the “elution volume of αIIbβ3 headpiece” value (αIIbβ3 headpiece [5]) of the same compound?
**A.** 12.15 ± 0.06 mL

**Q.** And the “Stokes radii, Size-exclusion” value (αIIbβ3 headpiece [5])?
**A.** 5.23 nm

**Q.** With `N=C(N)c1ccc(C(=O)NCCC(=O)N[C@@H](CC(=O)O)C(=O)N[C@@H](Cc2ccccc2)C(=O)O)cc1` [Ro-435054] as the compound, how does the “binds the high-affinity state better than the low-affinity state” value (αIIbβ3) read?
**A.** ~100 fold

**Q.** What about the Kd (αIIbβ3; read-out: KD, high-affinity state of αIIbβ3) of the same compound?
**A.** 0.006 µM

**Q.** What about the Kd (αIIbβ3; read-out: KD, low-affinity state of αIIbβ3) of the same compound?
**A.** 0.58 µM

**Q.** What about the “Conformational states” value (αIIbβ3 headpiece [6]; 1 mM ligand, Mg/Ca (1 mM MgCl2, 1 mM CaCl2), soak 2 h) of the same compound?
**A.** State 6/state 3

**Q.** Which “reduction in affinity relative to AGDV” value (αIIbβ3 headpiece [1]; ratio of KD values) does the source give for `CC(C)[C@@H](NC(=O)[C@H](CC(=O)O)NC(=O)CNC(=O)[C@H](C)N)C(=O)O` [AGD(v)] (H-AGD[dV]-OH) here?
**A.** 24 fold

**Q.** What about the Kd (αIIbβ3 headpiece [1]) of the same compound?
**A.** 217 ± 85.2 µM
